{"source": "patent US20110081348A1", "about": "“FUNGAL SIGNALLING AND METABOLIC ENZYMES” (priority 2004, published 2011)", "target": "recombinant truncated ILV34 (Aspergillus fumigatus, UniProt Q4X099)", "sequence (Q4X099 30-606)": "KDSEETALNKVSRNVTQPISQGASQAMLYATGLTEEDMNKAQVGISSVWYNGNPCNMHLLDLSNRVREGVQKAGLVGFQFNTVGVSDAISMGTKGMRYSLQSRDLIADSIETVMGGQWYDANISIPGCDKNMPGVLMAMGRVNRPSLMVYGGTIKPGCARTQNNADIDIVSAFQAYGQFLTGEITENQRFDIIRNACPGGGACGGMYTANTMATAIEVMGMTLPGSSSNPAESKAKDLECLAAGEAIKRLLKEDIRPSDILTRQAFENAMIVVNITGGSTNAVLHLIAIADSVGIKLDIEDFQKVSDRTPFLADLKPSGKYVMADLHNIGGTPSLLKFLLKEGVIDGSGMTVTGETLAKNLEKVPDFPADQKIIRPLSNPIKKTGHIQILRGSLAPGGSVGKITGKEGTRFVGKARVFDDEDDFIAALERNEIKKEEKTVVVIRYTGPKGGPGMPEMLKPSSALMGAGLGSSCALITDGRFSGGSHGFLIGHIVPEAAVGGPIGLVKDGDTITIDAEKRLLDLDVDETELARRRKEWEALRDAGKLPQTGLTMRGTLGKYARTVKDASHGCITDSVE", "test": "biochemical", "method": "The assay for ILV34 is based upon the ability of this enzyme to dehydrate dihydroxyacid substrates to a keto acid. […] The appearance of the keto acid product can be monitored directly at 240 nm; alternatively it can be reacted with semicarbazide and sodium acetate and monitored at 250 nm.\nAssays were carried out in 96- or 384-well plates. […] Samples were incubated at room temperature and at suitable intervals the reaction was stopped and developed by the addition of 25 p. 1 semicarbazide solution (1.26% w/v semicarbazide in 1.89% w/v sodium acetate solution). The samples were incubated for 15 mins after the final semicarbazide/sodium acetate addition and then read at 250 nm."}
{"smiles": "CC(C)C(O)C(=O)O", "note": "(stereo not shown) [2-hydroxy-3-methylbutyric acid]", "values": [{"measurement": "IC50", "value": "~10", "unit": "mM"}]}
